Experiments:
Format in all cases: cell-based
[1] = test system: HL-60 (acute myelogenous leukemia, AML); test: CellTiter-Glo (CTG) cytotoxicity assay, HL-60; conditions: Homo sapiens; HL-60, CTG assay, 48 h; read-out: Growth inhibition 50% (GI50) HL-60
Method: (§1) Compounds 1–5 were evaluated for their cytotoxicity against seven blood cancer cell lines, the most common cancer types in Korea, along with a normal cell line: HL-60 (acute myelogenous leukemia, AML), Raji (Burkitt’s lymphoma), WSU-DLCL2 (diffuse large B-cell lymphoma, DLBCL), NALM6 C. G5 (B-cell acute lymphocytic leukemia, B-ALL), K562 (chronic myelogenous leukemia, CML), RPMI-8402 (T-cell acute lymphocytic leukemia, T-ALL), U266 (multiple myeloma), and RPMI-1788 (B lymphocytes, normal cell line).
(§2) The cytotoxicity test was conducted with CTG luminescent cell viability and SRB assay according to the published procedures. Briefly, blood cancer cell lines and a normal cell line were obtained from the American Type Culture Collection (Manassas, VA, USA) (HL-60: acute myelogenous leukemia, Raji: Burkitt’s lymphoma, NALM6 C. G5: B-cell acute lymphocytic leukemia, K562: chronic myelogenous leukemia, U266: multiple myeloma, and RPMI-1788: B lymphocytes) and the DSMZ-German Collection of Microorganisms and Cell Cultures (WSU-DLCL2: diffuse large B-cell lymphoma and RPMI-8402: T-cell acute lymphocytic leukemia). The cell lines were incubated in RPMI 1640 supplemented with 10% fetal bovine serum, penicillin (100 IU/mL), and streptomycin (100 µg/mL) at 37 °C under a humidified atmosphere of 5% CO2. The cells with a passage number between 8 and 12 were used. The cell lines were prepared in an opaque-walled 96-well plate (8 × 10^3 cells/well), and the compounds (1–5 and doxorubicin as a positive control) with 0.1% DMSO were added to each well and incubated for 48 h. The cell cultures were then treated with 100 µL of CellTiter-Glo Reagent (Promega, Madison, WI, USA) and kept for 10 min to acquire a luminescence signal. Luminescence measurements were performed with the GloMax-Multi Detection System (Promega, Madison, WI, USA). The solid cancer cell lines and the normal cell line were obtained from the American Type Culture Collection (Manassas, VA, USA) (ACHN: renal, MDA-MB-231: breast, PC-3: prostate, NCI-H23: lung, HCT-15: colon, and MRC-9: lung fibroblast) and the Japanese Cancer Research Resources Bank (JCRB) (NUGC-3: stomach). The cell lines were incubated in RPMI 1640 supplemented with 10% fetal bovine serum, penicillin (100 IU/mL), and streptomycin (100 µg/mL) at 37 °C under a humidified atmosphere of 5% CO2. The cells with a passage number between 8 and 12 were used. The cells were then prepared in a 96-well plate (8 × 10^3 cells/well), and the compounds (1–5 and adriamycin as a positive control) with 0.1% DMSO were added to each well. After incubation for 48 h, the cell cultures were fixed using 50% trichloroacetic acid ([…]) and were dyed with 0.4% SRB in 1% acetic acid. Unbound dye was washed using 1% acetic acid and protein-bound dye was collected with 10 mM Tris base (pH 10.5) to measure optical density. Absorbance was measured at 540 nm with a VersaMax microplate reader (Molecular Devices, Sunnyvale, CA, USA) and GI50 values were calculated by GraphPad Prism 4.0 (GraphPad, San Diego, CA, USA).

[2] = test system: U266 (multiple myeloma); test: CellTiter-Glo (CTG) cytotoxicity assay, U266; conditions: Homo sapiens, U-266, 48 h, read-out: Growth inhibition 50% (GI50) U266
Method: as §1, §2

[3] = test system: NALM6 C. G5 (B-cell acute lymphocytic leukemia, B-ALL); test: CellTiter-Glo (CTG) cytotoxicity assay, NALM6 C. G5; conditions: Homo sapiens, NALM-6, 48 h, read-out: Growth inhibition 50% (GI50) NALM6 C. G5
Method: as §1, §2

[4] = test system: MDA-MB-231 (breast); test: Sulforhodamine B (SRB) cytotoxicity assay, MDA-MB-231; conditions: Homo sapiens; MDA-MB-231, SRB assay, 48 h; read-out: Growth inhibition 50% (GI50) MDA-MB-231
Method: (§3) Compounds 1–5 were further evaluated for their cytotoxicity against six solid cancer cell lines and a normal cell line: ACHN (renal), MDA-MB-231 (breast), PC-3 (prostate), NUGC-3 (stomach), NCI-H23 (lung), HCT-15 (colon), and MRC-9 (lung fibroblast, normal cell line). […] Additionally, compounds 1–5 were evaluated for their antimicrobial properties by applying the broth microdilution method, described by the Clinical and Laboratory Standards Institute, against three Gram-positive bacteria, Bacillus subtilis (KCTC 1021), Micrococcus luteus (KCTC 1915), and Staphylococcus aureus (KCTC 1927), and three Gram-negative bacteria, Escherichia coli (KCTC 2441), Salmonella enterica serovar Typhimurium (KCTC 2515), and Klebsiella pneumoniae (KCTC 2690).
as §2

[5] = test system: WSU-DLCL2 (diffuse large B-cell lymphoma, DLBCL); test: CellTiter-Glo (CTG) cytotoxicity assay, WSU-DLCL2; conditions: Homo sapiens, WSUDLCL2, 48 h, read-out: Growth inhibition 50% (GI50) WSU-DLCL2
Method: as §1, §2

[6] = test system: RPMI-8402 (T-cell acute lymphocytic leukemia, T-ALL); test: CellTiter-Glo (CTG) cytotoxicity assay, RPMI-8402; conditions: Homo sapiens; RPMI-8402, CTG assay, 48 h; read-out: Growth inhibition 50% (GI50) RPMI-8402
Method: as §1, §2

[7] = test system: Raji (Burkitt's lymphoma); test: CellTiter-Glo (CTG) cytotoxicity assay, Raji; conditions: Homo sapiens, 48 h, read-out: Growth inhibition 50% (GI50) Raji
Method: as §1, §2

[8] = test system: ACHN (renal); test: Sulforhodamine B (SRB) cytotoxicity assay, ACHN; conditions: Homo sapiens, 48 h, read-out: Growth inhibition 50% (GI50) ACHN
Method: as §3, §2

[9] = test system: NCI-H23 (lung); test: Sulforhodamine B (SRB) cytotoxicity assay, NCI-H23; conditions: Homo sapiens, 48 h, read-out: Growth inhibition 50% (GI50) NCI-H23
Method: as §3, §2

[10] = test system: K562 (chronic myelogenous leukemia, CML); test: CellTiter-Glo (CTG) cytotoxicity assay, K562; conditions: Homo sapiens, 48 h, read-out: Growth inhibition 50% (GI50) K562
Method: as §1, §2

[11] = test system: NUGC-3 (stomach); test: Sulforhodamine B (SRB) cytotoxicity assay, NUGC-3; conditions: Homo sapiens; NUGC-3, SRB assay, 48 h; read-out: Growth inhibition 50% (GI50) NUGC-3
Method: as §3, §2

[12] = test system: RPMI-1788 (B lymphocytes, normal cell line); test: CellTiter-Glo (CTG) cytotoxicity assay, RPMI-1788 normal cell line; conditions: 48 h, read-out: Growth inhibition 50% (GI50) RPMI-1788
Method: as §1, §2

[13] = test system: PC-3 (prostate); test: Sulforhodamine B (SRB) cytotoxicity assay, PC-3; conditions: PC-3, SRB assay, 48 h; read-out: Growth inhibition 50% (GI50) PC-3
Method: as §3, §2

[14] = test system: HCT-15 (colon); test: Sulforhodamine B (SRB) cytotoxicity assay, HCT-15; conditions: Homo sapiens; HCT-15, SRB assay, 48 h; read-out: Growth inhibition 50% (GI50) HCT-15
Method: as §3, §2

[15] = test system: MRC-9 (lung fibroblast, normal cell line); test: Sulforhodamine B (SRB) cytotoxicity assay, MRC-9 normal cell line; conditions: MRC9, 48 h, read-out: Growth inhibition 50% (GI50) MRC-9
Method: as §3, §2

[16] = test system: solid cancer cell lines; test: SRB cytotoxicity assay, panel of solid cancer cell lines; conditions: six solid cancer cell lines or the normal cell line, 48 h, read-out: GI50 values against solid cancer cell lines (range over the panel)
Method: as §3
(§4) The cytotoxicity test was conducted with CTG luminescent cell viability and SRB assay according to the published procedures. […] The cell cultures were then treated with 100 µL of CellTiter-Glo Reagent (Promega, Madison, WI, USA) and kept for 10 min to acquire a luminescence signal. Luminescence measurements were performed with the GloMax-Multi Detection System (Promega, Madison, WI, USA). […] Absorbance was measured at 540 nm with a VersaMax microplate reader (Molecular Devices, Sunnyvale, CA, USA) and GI50 values were calculated by GraphPad Prism 4.0 (GraphPad, San Diego, CA, USA).

[17] = test system: blood cancer cell lines; test: CTG cytotoxicity assay, panel of blood cancer cell lines; conditions: 48 h, read-out: GI50 values against blood cancer cell lines (range over the panel)
Method: as §1, §4

COc1cccc2c1C(=O)c1c(O)c3c(c(O)c1C2=O)C[C@@](O)(C(=O)CO)C[C@@H]3O[C@H]1C[C@H](N)[C@H](O)[C@H](C)O1 [Doxorubicin, reference compound]
GI50 [1]: 0.029 µM | GI50 [2]: 0.112 µM | GI50 [3]: 0.007 µM | GI50 [4]: 0.21 µM | GI50 [5]: 0.008 µM | GI50 [6]: 0.035 µM | GI50 [7]: 0.014 µM | GI50 [8]: 0.222 µM | GI50 [9]: 0.221 µM | GI50 [10]: 0.094 µM | GI50 [11]: 0.245 µM | GI50 [12]: 0.012 µM | GI50 [13]: 0.106 µM | GI50 [14]: 0.305 µM | GI50 [15]: 0.314 µM

C=C1C[C@@]23C[C@@H]1CC[C@]2(O)[C@@]1(C)CC[C@H](O)C(C)(C)[C@@H]1[C@H](O)C3 [compound 1, geliboluol A]
GI50 [1]: > 30 µM | GI50 [2]: > 30 µM | GI50 [3]: > 30 µM | GI50 [4]: > 30 µM | GI50 [5]: > 30 µM | GI50 [6]: > 30 µM | GI50 [7]: > 30 µM | GI50 [8]: > 30 µM | GI50 [9]: > 30 µM | GI50 [10]: > 30 µM | GI50 [11]: > 30 µM | GI50 [12]: > 30 µM | GI50 [13]: > 30 µM | GI50 [14]: > 30 µM | GI50 [15]: > 30 µM

C=C1C[C@@]23C[C@@H]1CC[C@]2(O)[C@@]1(C)[C@@H](O)CCC(C)(C)[C@@H]1[C@H](O)C3 [compound 2, geliboluol B]
GI50 [1]: > 30 µM | GI50 [2]: > 30 µM | GI50 [3]: > 30 µM | GI50 [4]: > 30 µM | GI50 [5]: > 30 µM | GI50 [6]: > 30 µM | GI50 [7]: > 30 µM | GI50 [8]: > 30 µM | GI50 [9]: > 30 µM | GI50 [10]: > 30 µM | GI50 [11]: > 30 µM | GI50 [12]: > 30 µM | GI50 [13]: > 30 µM | GI50 [14]: > 30 µM | GI50 [15]: > 30 µM

C=C1C[C@@]23C[C@@H]1CC[C@]2(O)[C@@]1(C)CCC[C@@](C)(CO)[C@@H]1[C@H](O)C3 [compound 3, geliboluol C]
GI50 [1]: > 30 µM | GI50 [2]: > 30 µM | GI50 [3]: > 30 µM | GI50 [4]: > 30 µM | GI50 [5]: > 30 µM | GI50 [6]: > 30 µM | GI50 [7]: > 30 µM | GI50 [8]: > 30 µM | GI50 [9]: > 30 µM | GI50 [10]: > 30 µM | GI50 [11]: > 30 µM | GI50 [12]: > 30 µM | GI50 [13]: > 30 µM | GI50 [14]: > 30 µM | GI50 [15]: > 30 µM

C=C1C2CCC3(O)C4(C)CCCC(C)(CO)C4C(O)CC3(C2)C1O (centres unmarked) [compound 4, geliboluol D]
GI50 [1]: 11.2 µM | GI50 [16]: 4.34 to 7.23 µM | GI50 [2]: > 30 µM | GI50 [3]: 2.59 µM | GI50 [4]: 5.73 µM | GI50 [5]: 3.48 µM | GI50 [6]: 8.51 µM | GI50 [7]: 2.73 µM | GI50 [17]: 2.59 to 19.6 µM | GI50 [8]: 4.58 µM | GI50 [9]: 5.13 µM | GI50 [10]: 19.6 µM | GI50 [11]: 4.34 µM | GI50 [12]: 4.52 µM | GI50 [13]: 6.5 µM | GI50 [14]: 5.73 µM | GI50 [15]: 7.23 µM

C=C1C[C@@]23C[C@@H]1CC[C@]2(O)[C@@]1(C)CCCC(C)(C)[C@@H]1[C@H](O)C3 [compound 5]
GI50 [1]: 16.4 µM | GI50 [2]: 22.5 µM | GI50 [3]: 7.34 µM | GI50 [4]: > 30 µM | GI50 [5]: 5.93 µM | GI50 [6]: 11.1 µM | GI50 [7]: 4.58 µM | GI50 [8]: > 30 µM | GI50 [9]: > 30 µM | GI50 [10]: 11.9 µM | GI50 [11]: > 30 µM | GI50 [12]: 9.56 µM | GI50 [13]: > 30 µM | GI50 [14]: > 30 µM | GI50 [15]: > 30 µM

Reference: publication PMC11857663, “Geliboluols A–D: Kaurane-Type Diterpenoids from the Marine-Derived Rare Actinomycete Actinomadura geliboluensis” (Marine Drugs, 2025)
